In patent publication US12018059B2, “Human amylin analog polypeptides and methods of use” (Intarcia Therapeutics, Inc., priority 2018, dated 2024):
Starred links: 1 amine or outer side, 2 acyl side, 3 side chain; linkers in the order of their positions; H or OH if unused. Positions of bridges follow the written chain, without caps; N, C: chain ends. Non-standard residues stand in square brackets, D forms with d. Residues, ends and D or L forms follow the SMILES beside them. Groups on a side chain read outwards from the residue. *: point of attachment. γGlu = O=C(O)[C@H](CCC(=O)[*:2])N[*:1]; HOOC(CH2)6CO = O=C(O)CCCCCCC(=O)*; Palmitoyl = CCCCCCCCCCCCCCCC(=O)*; AEEA = NCCOCCOCC(=O)O

Assay: in vivo
Parameters: species or system Sprague-Dawley rats
Details: rat, iv, 0.033 mg/kg
Experimental: Peptides were dissolved in sterile saline and administered as a 1-hour intravenous infusion to non-fasted male Sprague-Dawley rats (n=3 per group) via femoral vein cannula at a final dose of 0.033 mg/kg. […] Blood samples (approximately 250 μL) were collected for pharmacokinetic analysis via a jugular vein cannula at 0.25, 0.5, 0.75, 1, 1.17, 1.33, 1.5, 2, 4, 6, 8, 24, 30 and 48 hr post-start of infusion into microtainer tubes containing K2EDTA as anticoagulant and 25 μL of a protease inhibitor cocktail. Plasma was prepared by centrifugation and stored at −80° C. until analysis. The results of this analysis are shown in Table 9 and few exemplars in FIGS. 3a-3b. […]
A 60 μL aliquot of each plasma sample was placed into to a 96-well plate. To each well was added 6 μL of 0.5% Tween-20. Plates were then vortexed mixed for 10 minutes at 1200 rpm before 180 μL of 0.1% TFA in 2:1 ethanol:acetonitrile containing an appropriate internal standard was added to each well. Plates were vortex mixed for 5 min at 1300 rpm, and then centrifuged for 10 min at 2844×g. Supernatants (180 μL) were placed into a clean 96-well plate and evaporated under a nitrogen stream at 45° C. Residues were reconstituted in 80 μL of 20% acetonitrile (aq) containing 0.1% formic acid.
A […] aliquot of each plasma sample was diluted with […] of 10 mM ammonium acetate (pH 6.8) containing an appropriate internal standard and loaded onto an Oasis WCX microElution plate (Waters Corporation, Milford, MA) that had been pre-conditioned with […] of methanol and […] of deionized water. Samples were washed with […] of 5% ammonium hydroxide (aq) followed by […] of 20% acetonitrile in water. The analyte was eluted with […] of 5% formic acid in 75:25 acetonitrile:water. The eluent was dried under a nitrogen stream. Residues were reconstituted in 80 μL of 20% acetonitrile (aq) containing 0.1% formic acid.
All calibration standards were prepared in control rat plasma containing K2EDTA and protease inhibitor cocktail.
Samples and standards were analyzed by TurbolonSpray™ UPLC-MS/MS using a system consisting of a CTC HTS PAL auto-injector (Leap, Carrboro, NC), an Agilent Infinity 1290 system with column oven (Palo Alto, CA), a Valco switching valve (Houston, TX), and either an AB Sciex API 5600 TripleTOF™ or Sciex API 4000QTrap mass spectrometer (Framingham, MA). Samples were injected onto a 2.1×50 mm reverse phase C18 analytical column, typically a Waters CORTECS UPLC C18+, 1.6 μm (Waters Corporation, Milford, MA) or similar. […] Initial conditions consisted of 90% A and 10% B. The organic component was increased to 95% B over a period of 3-4 minutes, depending on the peptide. Typical flow rates were 600 μL/min. The column temperature was held constant at 40 or 50° C. Peptides were quantified by monitoring one or more product ions produced from a multiply charged parent ion.

Vd | clearance | half-life | Structure (SMILES)
0.163 L/kg | 0.011 L/h/kg | 11.3 h | CCCCCCCCCCCCCCCC(=O)N[C@@H](CCC(=O)N[C@@H](CCC(=O)N[C@@H](CCC(=O)N[C@@H](CCC(=O)N[C@@H](CCC(=O)NCCCC[C@H](NC(=O)[C@H](CCC(=O)O)NC(=O)[C@H](CC(N)=O)NC(=O)[C@H](C)NC(=O)[C@H](CC(C)C)NC(=O)[C@H](CCCNC(=N)N)NC(=O)[C@H](CCC(N)=O)NC(=O)[C@@H](NC(=O)[C@H](C)NC(=O)[C@@H]1CSSC[C@H](NC(=O)[C@@H](N)CO)C(=O)N[C@@H](CC(N)=O)C(=O)N[C@@H]([C@@H](C)O)C(=O)N[C@@H](CO)C(=O)N[C@@H]([C@@H](C)O)C(=O)N1)[C@@H](C)O)C(=O)N[C@@H](Cc1c[nH]cn1)C(=O)N[C@@H](CCCCN)C(=O)N[C@@H](CO)C(=O)N[C@@H](CO)C(=O)N[C@@H](CC(N)=O)C(=O)N[C@@H](CC(N)=O)C(=O)N[C@@H](Cc1ccccc1)C(=O)NCC(=O)N1CCC[C@H]1C(=O)N[C@H](C(=O)N[C@@H](CC(C)C)C(=O)N1CCC[C@H]1C(=O)N1CCC[C@H]1C(=O)N[C@H](C(=O)N[C@@H](CCCCN)C(=O)N[C@H](C(=O)NCC(=O)N[C@@H](CO)C(=O)N[C@@H](CCC(=O)O)C(=O)N[C@H](C(=O)N[C@@H](Cc1ccc(O)cc1)C(N)=O)[C@@H](C)O)C(C)C)[C@@H](C)O)[C@@H](C)CC)C(=O)O)C(=O)O)C(=O)O)C(=O)O)C(=O)O [Compound A14] (H-SCNTSTCATQRLANEK([γGlu-γGlu-γGlu-γGlu-γGlu-Palmitoyl])HKSSNNFGPILPPTKVGSETY-NH2; disulfide 2-7)
0.136 L/kg | 0.009 L/h/kg | 11.5 h | CCCCCCCCCCCCCCCC(=O)N[C@@H](CCC(=O)N[C@@H](CCC(=O)N[C@@H](CCC(=O)NCCOCCOCC(=O)NCCOCCOCC(=O)N[C@@H](CCC(=O)NCCCC[C@H](NC(=O)[C@H](CCC(=O)O)NC(=O)[C@H](CC(N)=O)NC(=O)[C@H](C)NC(=O)[C@H](CC(C)C)NC(=O)[C@H](CCCNC(=N)N)NC(=O)[C@H](CCC(N)=O)NC(=O)[C@@H](NC(=O)[C@H](C)NC(=O)[C@@H]1CSSC[C@H](NC(=O)[C@@H](N)CO)C(=O)N[C@@H](CC(N)=O)C(=O)N[C@@H]([C@@H](C)O)C(=O)N[C@@H](CO)C(=O)N[C@@H]([C@@H](C)O)C(=O)N1)[C@@H](C)O)C(=O)N[C@@H](Cc1c[nH]cn1)C(=O)N[C@@H](CCCCN)C(=O)N[C@@H](CO)C(=O)N[C@@H](CO)C(=O)N[C@@H](CC(N)=O)C(=O)N[C@@H](CC(N)=O)C(=O)N[C@@H](Cc1ccccc1)C(=O)NCC(=O)N1CCC[C@H]1C(=O)N[C@H](C(=O)N[C@@H](CC(C)C)C(=O)N1CCC[C@H]1C(=O)N1CCC[C@H]1C(=O)N[C@H](C(=O)N[C@@H](CCCCN)C(=O)N[C@H](C(=O)NCC(=O)N[C@@H](CO)C(=O)N[C@@H](CCC(=O)O)C(=O)N[C@H](C(=O)N[C@@H](Cc1ccc(O)cc1)C(N)=O)[C@@H](C)O)C(C)C)[C@@H](C)O)[C@@H](C)CC)C(=O)O)C(=O)O)C(=O)O)C(=O)O [Compound A19] (H-SCNTSTCATQRLANEK([γGlu-AEEA-AEEA-γGlu-γGlu-γGlu-Palmitoyl])HKSSNNFGPILPPTKVGSETY-NH2; disulfide 2-7; N-terminus assumed)

Continued, compound first:

Structure (SMILES) | Vd | clearance | half-life
CCCCCCCCCCCCCCCC(=O)N[C@@H](CCC(=O)NCCCC[C@H](NC(=O)[C@H](CC(C)C)NC(=O)[C@H](CCC(=O)O)NC(=O)[C@H](CC(N)=O)NC(=O)[C@H](C)NC(=O)[C@H](CC(C)C)NC(=O)[C@H](CCCNC(=N)N)NC(=O)[C@H](CCC(N)=O)NC(=O)[C@@H](NC(=O)[C@H](C)NC(=O)[C@@H]1CSSC[C@H](NC(=O)[C@@H](N)CO)C(=O)N[C@@H](CC(N)=O)C(=O)N[C@@H]([C@@H](C)O)C(=O)N[C@@H](CO)C(=O)N[C@@H]([C@@H](C)O)C(=O)N1)[C@@H](C)O)C(=O)N[C@@H](CCCCN)C(=O)N[C@@H](CO)C(=O)N[C@@H](CO)C(=O)N[C@@H](CC(N)=O)C(=O)N[C@@H](CC(N)=O)C(=O)N[C@@H](Cc1ccccc1)C(=O)NCC(=O)N1CCC[C@H]1C(=O)N[C@H](C(=O)N[C@@H](CC(C)C)C(=O)N1CCC[C@H]1C(=O)N1CCC[C@H]1C(=O)N[C@H](C(=O)N[C@@H](CCCCN)C(=O)N[C@H](C(=O)NCC(=O)N[C@@H](CO)C(=O)N[C@@H](CCC(=O)O)C(=O)N[C@H](C(=O)N[C@@H](Cc1ccc(O)cc1)C(N)=O)[C@@H](C)O)C(C)C)[C@@H](C)O)[C@@H](C)CC)C(=O)O [Compound A10] (H-SCNTSTCATQRLANELK([γGlu-Palmitoyl])KSSNNFGPILPPTKVGSETY-NH2; disulfide 2-7) | 0.245 L/kg | 0.223 L/h/kg | 0.965 h
CCCCCCCCCCCCCCCC(=O)N[C@@H](CCC(=O)NCCOCCOCC(=O)NCCOCCOCC(=O)NCCCC[C@@H](NC(=O)[C@H](CCC(=O)O)NC(=O)[C@H](CC(N)=O)NC(=O)[C@H](C)NC(=O)[C@H](CC(C)C)NC(=O)[C@H](CCCNC(=N)N)NC(=O)[C@H](CCC(N)=O)NC(=O)[C@@H](NC(=O)[C@H](C)NC(=O)[C@@H]1CSSC[C@H](NC(=O)[C@@H](N)CO)C(=O)N[C@@H](CC(N)=O)C(=O)N[C@@H]([C@@H](C)O)C(=O)N[C@@H](CO)C(=O)N[C@@H]([C@@H](C)O)C(=O)N1)[C@@H](C)O)C(=O)N[C@@H](Cc1c[nH]cn1)C(=O)N[C@@H](CCCCN)C(=O)N[C@@H](CO)C(=O)N[C@@H](CO)C(=O)N[C@@H](CC(N)=O)C(=O)N[C@@H](CC(N)=O)C(=O)N[C@@H](Cc1ccccc1)C(=O)NCC(=O)N1CCC[C@H]1C(=O)N[C@H](C(=O)N[C@@H](CC(C)C)C(=O)N1CCC[C@H]1C(=O)N1CCC[C@H]1C(=O)N[C@H](C(=O)N[C@@H](CCCCN)C(=O)N[C@H](C(=O)NCC(=O)N[C@@H](CO)C(=O)N[C@@H](CCC(=O)O)C(=O)N[C@H](C(=O)N[C@@H](Cc1ccc(O)cc1)C(N)=O)[C@@H](C)O)C(C)C)[C@@H](C)O)[C@@H](C)CC)C(=O)O [Compound A12] (H-SCNTSTCATQRLANE[dK]([AEEA-AEEA-γGlu-Palmitoyl])HKSSNNFGPILPPTKVGSETY-NH2; disulfide 2-7; N-terminus assumed) | 0.252 L/kg | 0.093 L/h/kg | 2.47 h
CC[C@H](C)[C@H](NC(=O)[C@@H]1CCCN1C(=O)CNC(=O)[C@H](Cc1ccccc1)NC(=O)[C@H](CC(N)=O)NC(=O)[C@H](CC(N)=O)NC(=O)[C@H](CO)NC(=O)[C@H](CO)NC(=O)[C@H](CCCCN)NC(=O)[C@H](Cc1c[nH]cn1)NC(=O)[C@H](CC(C)C)NC(=O)[C@H](CCCCNC(=O)CCCCCCC(=O)O)NC(=O)[C@H](CC(N)=O)NC(=O)[C@H](C)NC(=O)[C@H](CC(C)C)NC(=O)[C@H](CCCNC(=N)N)NC(=O)[C@H](CCC(N)=O)NC(=O)[C@@H](NC(=O)[C@H](C)NC(=O)[C@@H]1CSSC[C@H](NC(=O)[C@@H](N)CO)C(=O)N[C@@H](CC(N)=O)C(=O)N[C@@H]([C@@H](C)O)C(=O)N[C@@H](CO)C(=O)N[C@@H]([C@@H](C)O)C(=O)N1)[C@@H](C)O)C(=O)N[C@@H](CC(C)C)C(=O)N1CCC[C@H]1C(=O)N1CCC[C@H]1C(=O)N[C@H](C(=O)N[C@@H](CCCCN)C(=O)N[C@H](C(=O)NCC(=O)N[C@@H](CO)C(=O)N[C@@H](CCC(=O)O)C(=O)N[C@H](C(=O)N[C@@H](Cc1ccc(O)cc1)C(N)=O)[C@@H](C)O)C(C)C)[C@@H](C)O [Compound A18] (H-SCNTSTCATQRLANK(HOOC(CH2)6CO)LHKSSNNFGPILPPTKVGSETY-NH2; disulfide 2-7) | 0.805 L/kg | 1.16 L/h/kg | 0.508 h
